In publication PMC11650737, “Developing MYC Degraders Bearing the Von Hippel–Lindau Ligand to Target the “Undruggable” MYC” (ACS Pharmacology & Translational Science, 2024):
Values joined by “and” are separate entries in the source; they are usually repeats but may differ in a detail not shown here. Equal values may be shown once.

Tests used:
[1] = Pharmacokinetic study in mice; assay type: in vivo, mice (male C57BL/6J); conditions: for adverse effects during the study / level in blood circulation 24 h after treatment / AUCs: i.p.; for adverse effects during the study: 10 mg/kg single dose; for level in blood circulation 24 h after treatment / AUCs / concentration at 8 h / Cmax / Tmax / half-life: 10 mg/kg; for AUCs / Cmax / Tmax: blood; for concentration at 8 h / Cmax / Tmax / half-life: male, C57BL/6J, mouse, whole blood; for concentration at 8 h: read-out: average blood concentration 8 h after administration; for half-life: noncompartmental analysis, read-out: T ½ (converted)
Description: In order to assess the efficacy potential of MYC degraders in animal models, pharmacokinetic studies were carried out in mice (Figure 6A,B). Following intraperitoneal (i.p.) administration of selected compounds, CSI86, CSI135, and CSI107 at 10 mg/kg, blood samples were collected at different time points until 24 h post-drug administration, and concentrations were determined via LC-MS/MS.
Animals that were used for the study were male C57BL/6J (n = 7) at the age of 6–8 weeks (average weight = 20–25 g). Each PROTAC was administered at 10 mg/kg, and the dosing volume per animal was 200 μL. The vehicle for CSI86, CSI107, and […], respectively, was corn oil/10% DMSO, and the administration was i.p. CSI86 was also administered PO at the same dose using 0.5% carboxymethyl cellulose (CMC) as a vehicle in water. Whole blood from two control mice was used for the preparation of standard solutions.
A serial tail bleeding protocol was performed for the collection of blood samples. Blood samples (10 μL) were collected at selected time points (15 min, 30 min, 1 h, 2 h, 4 h, 6 h, 8 h, and 24 h) in tubes containing 40 μL of sodium citrate (0.1 M, pH 4.5) and stored at −80 °C until the day of the analysis.
For the calculation of T1/2, a noncompartmental pharmacokinetics analysis was used via the online application “Dash App Gallery Pharmacokinetics Calculator.” […]
Characterization and Quantitative Analysis of PROTACs by Liquid Chromatography-Mass Spectrometry […]
For detection and quantification of the PROTACs in medium and biological samples, LC-MS/MS methodologies were developed. Mass spectrometry was performed on a Triple Quad 5500 + LC-MS/MS system fitted with a TurboIonSpray source and a hybrid triple quadrupole/linear ion trap mass spectrometer. HPLC was performed using an Exion LC AB Sciex system with a temperature-controlled column compartment and an autosampler. A C8 column (SunFire 2.1 x 50 mm, 3.5 μm) (Waters, MA, USA) was used at a flow rate of 0.3 mL/min for the separation of the analytes of interest. The mobile phase consisted of A: 10% ACN, 90% water, 2 mM ammonium acetate, and 0.1% FA and B: 90% ACN, 10% water, 2 mM ammonium acetate, and 0.1% FA, the injection volume was 10 μL. Elution of CSI86 PROTAC was achieved by a gradient of solvent A – solvent B described as follows: 100% A (0.0 - 0.5 min), 20% A (1.0 – […]
3.0 min), 100% A (3.1 – 5.1 min).
1040.5, for the CSI86 PROTAC with exact mass of 1039 (g/mol). Elution of CSI107 PROTAC was achieved by a gradient of solvent A – solvent B described as follows: 80% A (0.0 - 0.5 min), 15% A (1.5 – 3.5 min), […]
the CSI107 PROTAC with an exact mass of 1053 (g/mol).
Table S1: Optimized parameters for the LC-MS/MS analysis. […]
Detection protein degraders in mouse blood by LC-MS/MS analysis
For the LC-MS/MS analysis of the PK study, sample preparation was performed as follows.
Double Blank Blank + IS Standards
50 μL blood 50 μL blood 50 μL blood
10 μL ACN: H 2O 10 μL ACN: H 2O 10 μL std
300 μL of cold ACN were added in all samples for protein precipitation, followed by centrifugation at 13000 rpm for 10 min. The supernatant was transferred in glass tubes and evaporated at 55 °C for approximately 1 h. The samples were reconstituted in Mobile Phase A (90% H2O-10% ACN, 0.1% FA, 2 mM ammonium acetate) and the circulating amount of PROTAC was determined by LC-MS/MS analysis using a stable internal standard such as Warfarin or BETd-260 respectively. Gradient (20% A – 80% B) LC-MS/MS conditions were applied and the concentration range for the standard curve was 1 - 10.000 ng/mL. […]

[2] = tested on: SKBR3 cells; assay: Cell viability (MTT) assay, SKBR3; assay type: cell-based, human; conditions: Homo sapiens, SK-BR-3, 72 h, read-out: IC50 (antiproliferative effect)
Description: The antiproliferative activity of the synthesized compounds was tested in cell viability assays optimally set up for various cancer cell lines (results are depicted in Table 2, n = 3, average IC50 (μM) ± SD).
Cells were plated at a density of 5 × 10^3 cells per well on 96-well plates. After 24 h of incubation (37 °C, 5% CO2), the cell medium was removed, and compounds were added at selected concentrations (0.1–100 μM), followed by incubation for 72 h. Control cells were treated with 0.4% DMSO medium to match the conditions in the wells where drugs were added. After 72 h, the medium was removed, and the 3-(4,5-dimethylthiazol-2-yl)-2,5-diphenyltetrazolium bromide (MTT) solution (0.3 mg/mL in PBS) was added to cells for 3 h under no light conditions. The MTT solution was removed, and the formazan crystals were dissolved in 100 μL of DMSO. The optical density was measured at 570 nm with a reference wavelength of 690 nm using an absorbance microplate reader (SpectraMax 190, Molecular Devices, Sunnyvale, CA, USA). The half-maximal inhibitory concentration (IC50) was calculated based on a four-parameter logistic equation, generating a cell viability curve, using GraphPad Prism 6.01 (GraphPad Software, Inc.). Two concentrations of an established drug, Docetaxel (100 nM and 1 nM), were used in each experiment as a positive control. The resulting absorbance values were used instead of IC50 calculation. Each point was the result of three independent experiments performed in triplicate.

AUCs [1] | concentration at 8 h ([1]; ip) | Cmax ([1]; ip) | Tmax ([1]; ip) [h] | half-life ([1]; ip) [h] | Cmax ([1]; oral gavage (PO)) [ng/mL] | IC50 [2] [µM] | Compound | adverse effects during the study [1] | level in blood circulation 24 h after treatment [1]
8,4 h x μg/mL | ~500 ng/mL and ~480 nM | 713 ng/mL and 686 nM | 2 | 7.4 | < 100 | 15 ± 4 | Cc1ncsc1-c1ccc(CNC(=O)[C@@H]2C[C@@H](O)CN2C(=O)[C@@H](NC(=O)CCC(=O)NCCCOc2ccc(-c3cc(C(F)(F)F)nn3C)c(O)c2-c2cc(C(F)(F)F)cc(C(F)(F)F)c2)C(C)(C)C)cc1 [CSI86] | no adverse effects were reported | evident levels of the degrader being present in blood circulation
3,4 h x μg/mL | ~150 ng/mL and ~140 nM | 413 ng/mL and 392 nM | 2 | 5 ± 0.5 | – | 14 ± 2 | Cc1ncsc1-c1ccc(CNC(=O)[C@@H]2C[C@@H](O)CN2C(=O)[C@@H](NC(=O)CCCC(=O)NCCCOc2ccc(-c3cc(C(F)(F)F)nn3C)c(O)c2-c2cc(C(F)(F)F)cc(C(F)(F)F)c2)C(C)(C)C)cc1 [CSI107] | no adverse effects were reported | evident levels of the degrader being present in blood circulation
6 h x μg/mL | – | 699 ng/mL and 636 nM | 2 | 7.6 | – | – | Cc1ncsc1-c1ccc(CNC(=O)[C@@H]2C[C@@H](O)CN2C(=O)[C@@H](NC(=O)COCCOCC(=O)NCCCOc2ccc(-c3cc(C(F)(F)F)nn3C)c(O)c2-c2cc(C(F)(F)F)cc(C(F)(F)F)c2)C(C)(C)C)cc1 [CSI135] | no adverse effects were reported | evident levels of the degrader being present in blood circulation
